Assay results reported in patent publication US20250223268A1, “4-Methylsulfonylbenzamide Compound, Preparation Method, Herbicidal Composition And Use” (Jiangsu Flag Chemical Industry Co., Ltd., priority 2022, published 2025).

Experiments:
Assay type in all cases: in vivo
Digitaria sanguinalis [1] = experiment: Greenhouse herbicidal activity and crop safety comparison (Test Example 2)
Procedure, shortened: (§1)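 Fresh weight inhibition, banded into grades A to E (E <20%), was rated 14-21 days after foliar spraying of 3-6 leaf plants, or 14-30 days after a soil spray applied 24 h post-sowing.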

Echinochloa crusgalli [2] = experiment: as above
Procedure, shortened: as §1

[3] = tested on: Oryza sativa subsp. indica; experiment: as above
Procedure, shortened: as §1

[4] = tested on: Oryza sativa subsp. japonica; experiment: as above
Procedure, shortened: as §1

Zea mays = experiment: as above
Procedure, shortened: as §1

Cyperus iria = experiment: Greenhouse herbicidal activity assay, post-emergence; settings: Post-emergence test, rate 150 g a.i./hm^2, grade by fresh weight inhibition rate
Procedure, shortened: (§2)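 Foliar spray at 3-6 leaves; pot-grown in nutrient soil in growth chamber; air-dried post-spray. Read-out at 14-21 d: fresh weight inhibition, graded A (≥80% to 100%) down to E (<20%); NT = not tested.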

Digitaria sanguinalis [5] = experiment: as above; settings: Post-emergence test, rate 150 g a.i./hm^2, grade by fresh weight inhibition rate
Procedure, shortened: as §2

Echinochloa crusgalli [6] = experiment: as above; settings: Post-emergence test, rate 150 g a.i./hm^2, grade by fresh weight inhibition rate
Procedure, shortened: as §2

Eclipta prostrata = experiment: as above; settings: Post-emergence test, rate 150 g a.i./hm^2, grade by fresh weight inhibition rate
Procedure, shortened: as §2

Leptochloa chinensis = experiment: as above; settings: Post-emergence test, rate 150 g a.i./hm^2, grade by fresh weight inhibition rate
Procedure, shortened: as §2

Cn1ncnc1NC(=O)c1ccc(S(C)(=O)=O)c(S(=O)(=O)C2CCCC2)c1Cl [Compound 2-46]
Digitaria sanguinalis, control efficacy grading (fresh weight inhibition rate) (Digitaria sanguinalis [1]; Rate 150 g/ha): A (Fresh weight inhibition rate≥80% to 100%) | Echinochloa crusgalli, control efficacy grading (fresh weight inhibition rate) (Echinochloa crusgalli [2]; Rate 75 g/ha): A (Fresh weight inhibition rate≥80% to 100%) | Echinochloa crusgalli, control efficacy grading (fresh weight inhibition rate) (Echinochloa crusgalli [2]; Rate 150 g/ha): A (Fresh weight inhibition rate≥80% to 100%) | Oryza sativa subsp. indica, grading of fresh weight inhibition rate (crop safety) ([3]; Rate 75 g/ha): E (Fresh weight inhibition rate<20%) | Oryza sativa subsp. indica, grading of fresh weight inhibition rate (crop safety) ([3]; Rate 150 g/ha): E (Fresh weight inhibition rate<20%) | Oryza sativa subsp. japonica, grading of fresh weight inhibition rate (crop safety) ([4]; Rate 75 g/ha): E (Fresh weight inhibition rate<20%) | Oryza sativa subsp. japonica, grading of fresh weight inhibition rate (crop safety) ([4]; Rate 150 g/ha): E (Fresh weight inhibition rate<20%) | Zea mays, grading of fresh weight inhibition rate (crop safety) (Zea mays; Rate 75 g/ha): E (Fresh weight inhibition rate<20%) | Zea mays, grading of fresh weight inhibition rate (crop safety) (Zea mays; Rate 150 g/ha): E (Fresh weight inhibition rate<20%) | Control efficacy grade, Cyperus iria (Cyperus iria): A (Fresh weight inhibition rate≥80% to 100%) | Control efficacy grade, Digitaria sanguinalis (Digitaria sanguinalis [5]): A (Fresh weight inhibition rate≥80% to 100%) | Control efficacy grade, Echinochloa crusgalli (Echinochloa crusgalli [6]): A (Fresh weight inhibition rate≥80% to 100%) | Control efficacy grade, Eclipta prostrata (Eclipta prostrata): A (Fresh weight inhibition rate≥80% to 100%) | Control efficacy grade, Leptochloa chinensis (Leptochloa chinensis): A (Fresh weight inhibition rate≥80% to 100%)

CC(C)S(=O)(=O)c1c(S(C)(=O)=O)ccc(C(=O)Nc2ncnn2C)c1Cl [Compound 2-10, 2-chloro-3-(isopropylsulfonyl)-N-(1-methyl-H-1,2,4-triazol-5-yl)-4-(methylsulfonyl)benzamide]
inhibition at 75 g/ha (Digitaria sanguinalis [1]; Digitaria sanguinalis, Rate 75 g/ha, read-out: Digitaria sanguinalis, control efficacy grading (fresh weight inhibition rate)): 80 to 100% | inhibition at 150 g/ha (Digitaria sanguinalis [1]; Digitaria sanguinalis, Rate 150 g/ha, read-out: Digitaria sanguinalis, control efficacy grading (fresh weight inhibition rate)): 80 to 100% | inhibition at 75 g/ha (Echinochloa crusgalli [2]; Echinochloa crus-galli, Rate 75 g/ha, read-out: Echinochloa crusgalli, control efficacy grading (fresh weight inhibition rate)): 80 to 100% | inhibition at 150 g/ha (Echinochloa crusgalli [2]; Echinochloa crus-galli, Rate 150 g/ha, read-out: Echinochloa crusgalli, control efficacy grading (fresh weight inhibition rate)): 80 to 100% | Oryza sativa subsp. indica, grading of fresh weight inhibition rate (crop safety) ([3]; Rate 75 g/ha): E (Fresh weight inhibition rate<20%) | Oryza sativa subsp. indica, grading of fresh weight inhibition rate (crop safety) ([3]; Rate 150 g/ha): E (Fresh weight inhibition rate<20%) | Oryza sativa subsp. japonica, grading of fresh weight inhibition rate (crop safety) ([4]; Rate 75 g/ha): E (Fresh weight inhibition rate<20%) | Oryza sativa subsp. japonica, grading of fresh weight inhibition rate (crop safety) ([4]; Rate 150 g/ha): E (Fresh weight inhibition rate<20%) | Zea mays, grading of fresh weight inhibition rate (crop safety) (Zea mays; Rate 75 g/ha): E (Fresh weight inhibition rate<20%) | Zea mays, grading of fresh weight inhibition rate (crop safety) (Zea mays; Rate 150 g/ha): E (Fresh weight inhibition rate<20%) | pest or weed control at 150 g/ha (Cyperus iria; Cyperus iria, read-out: Control efficacy grade, Cyperus iria): 80 to 100% | pest or weed control at 150 g/ha (Digitaria sanguinalis [5]; Digitaria sanguinalis, read-out: Control efficacy grade, Digitaria sanguinalis): 80 to 100% | pest or weed control at 150 g/ha (Echinochloa crusgalli [6]; Echinochloa crus-galli, read-out: Control efficacy grade, Echinochloa crusgalli): 80 to 100% | pest or weed control at 150 g/ha (Eclipta prostrata; Eclipta prostrata, read-out: Control efficacy grade, Eclipta prostrata): 80 to 100% | pest or weed control at 150 g/ha (Leptochloa chinensis; Dinebra chinensis, read-out: Control efficacy grade, Leptochloa chinensis): 80 to 100%
